According to ChEMBL document CHEMBL3872232, “2-Azetidinones: Synthesis and biological evaluation as potential anti-breast cancer agents” (Eur J Med Chem, 2016):
pIC50: −log10 of the molar value.

What was measured:
[1] = Antiproliferative activity against human MDA-MB-231 cells after 48 hrs by MTT assay; type: functional, cell-based; details: MDA-MB-231, 48 h
[2] = Antiproliferative activity against human mammary epithelial cells after 48 hrs by MTT assay; type: cell-based, Epithelial cell; details: for pIC50: Homo sapiens, Epithelial cell, 48 h, read-out: IC50; for IC50: epithelial cell
[3] = Antiproliferative activity against human MCF7 cells after 48 hrs by MTT assay; type: functional, cell-based; details: MCF7, 48 h
[4] = Safety index, ratio of compound IC50 to colchicine IC50 for human mammary epithelial cells; type: ADME, cell-based, Epithelial cell; details: read-out: Ratio IC50
[5] = test system: MDA-MB-231; test: Effect on p21 mRNA expression in human MDA-MB-231 cells assessed as ratio of p21 to GAPDH expression level at 5 uM after 24 hrs by RT-PCR method (reference value: 0.02); type: functional
[6] = Cell cycle arrest in human MCF7 cells assessed as accumulation at G0/G1 phase at 5 uM after 24 hrs by propidium iodide staining based flow cytometry (reference value: 83.25%); type: functional
[7] = test system: MDA-MB-231; test: Effect on cyclin D1 mRNA expression in human MDA-MB-231 cells assessed as ratio of cyclin D1 to GAPDH expression level at 5 uM after 24 hrs by RT-PCR method (reference value: 0.71); type: functional
[8] = organism: Homo sapiens; test: Inhibition of Akt in human MDA-MB-231 cells assessed as ratio of phosphorylated Akt to GAPDH expression level at 2 uM after 48 hrs by immunoblot analysis (reference value: 0.33 to 0.81); type: cell-based
[9] = test system: MCF7; test: Induction of apoptosis in human MCF7 cells assessed as necrotic cells at 5 uM after 24 hrs by Annexin V-FITC/propidium iodide staining based flow cytometry (reference value: 3.7%); type: functional
[10] = test system: MDA-MB-231; test: Ratio of Bcl-2 to Bax gene expression in human MDA-MB-231 cells at 5 uM after 24 hrs by RT-PCR method (reference value: 0.03); type: functional
[11] = test system: MDA-MB-231; test: Effect on Cdk6 mRNA expression in human MDA-MB-231 cells assessed as ratio of Cdk6 to GAPDH expression level at 5 uM after 24 hrs by RT-PCR method (reference value: 1.37); type: functional
[12] = test system: MDA-MB-231; test: Inhibition of Akt in human MDA-MB-231 cells after 48 hrs by ELISA; type: cell-based
[13] = organism: Homo sapiens; test: Inhibition of Akt in human MDA-MB-231 cells assessed as ratio of phosphorylated GSK-3beta to GAPDH expression level at 2 uM after 48 hrs by immunoblot analysis (reference value: 0.14 to 1.50); type: cell-based
[14] = Cell cycle arrest in human MCF7 cells assessed as accumulation at S phase at 5 uM after 24 hrs by propidium iodide staining based flow cytometry (reference value: 4.23%); type: functional
[15] = test system: MDA-MB-231; test: Effect on cyclin E mRNA expression in human MDA-MB-231 cells assessed as ratio of cyclin E to GAPDH expression level at 5 uM after 24 hrs by RT-PCR method (reference value: 0.13); type: functional
[16] = test system: MDA-MB-231; test: Effect on p27 mRNA expression in human MDA-MB-231 cells assessed as ratio of p27 to GAPDH expression level at 5 uM after 24 hrs by RT-PCR method (reference value: 0.23); type: functional
[17] = organism: Homo sapiens; test: Inhibition of Akt in human MDA-MB-231 cells assessed as ratio of phosphorylated Akt to GAPDH expression level at 5 uM after 48 hrs by immunoblot analysis (reference value: 0.33 to 0.81); type: cell-based
[18] = test system: MDA-MB-231; test: Induction of apoptosis in human MDA-MB-231 cells assessed as late apoptotic cells at 5 uM after 24 hrs by Annexin V-FITC/propidium iodide staining based flow cytometry (reference value: 1.8%); type: functional
[19] = test system: MCF7; test: Induction of apoptosis in human MCF7 cells assessed as late apoptotic cells at 5 uM after 24 hrs by Annexin V-FITC/propidium iodide staining based flow cytometry (reference value: 2.3%); type: functional
[20] = test system: MDA-MB-231; test: Effect on p53 gene expression in human MDA-MB-231 cells assessed as ratio of p53 to beta-actin expression level at 5 uM after 24 hrs by RT-PCR method (reference value: 0.22); type: functional
[21] = organism: Homo sapiens; test: Inhibition of Akt in human MDA-MB-231 cells assessed as ratio of phosphorylated GSK-3beta to GAPDH expression level at 10 uM after 48 hrs by immunoblot analysis (reference value: 0.14 to 1.50); type: cell-based
[22] = test system: MDA-MB-231; test: Induction of apoptosis in human MDA-MB-231 cells assessed as necrotic cells at 5 uM after 24 hrs by Annexin V-FITC/propidium iodide staining based flow cytometry (reference value: 1.3%); type: functional
[23] = test system: MDA-MB-231; test: Effect on Cdk2 mRNA expression in human MDA-MB-231 cells assessed as ratio of Cdk2 to GAPDH expression level at 5 uM after 24 hrs by RT-PCR method (reference value: 0.26); type: functional
[24] = Cell cycle arrest in human MCF7 cells assessed as accumulation at G2/M phase at 5 uM after 24 hrs by propidium iodide staining based flow cytometry (reference value: 9.29%); type: functional
[25] = organism: Homo sapiens; test: Inhibition of Akt in human MDA-MB-231 cells assessed as ratio of phosphorylated Akt to GAPDH expression level at 10 uM after 48 hrs by immunoblot analysis (reference value: 0.33 to 0.81); type: cell-based
[26] = test system: MDA-MB-231; test: Effect on Bid gene expression in human MDA-MB-231 cells assessed as ratio of Bid to beta-actin expression level at 5 uM after 24 hrs by RT-PCR method (reference value: 0.17); type: functional
[27] = test system: MDA-MB-231; test: Induction of apoptosis in human MDA-MB-231 cells assessed as early apoptotic cells at 5 uM after 24 hrs by Annexin V-FITC/propidium iodide staining based flow cytometry (reference value: 0.5%); type: functional
[28] = Cell cycle arrest in human MCF7 cells assessed as accumulation at sub-G1 phase at 5 uM after 24 hrs by propidium iodide staining based flow cytometry (reference value: 3.58%); type: functional
[29] = test system: MCF7; test: Induction of apoptosis in human MCF7 cells assessed as early apoptotic cells at 5 uM after 24 hrs by Annexin V-FITC/propidium iodide staining based flow cytometry (reference value: 1.6%); type: functional
[30] = test system: MDA-MB-231; test: Inhibition of Akt phosphorylation in human MDA-MB-231 cells after 48 hrs by immunoblot analysis; type: cell-based
[31] = organism: Homo sapiens; test: Inhibition of Akt in human MDA-MB-231 cells assessed as ratio of phosphorylated GSK-3beta to GAPDH expression level at 5 uM after 48 hrs by immunoblot analysis (reference value: 0.14 to 1.50); type: cell-based

With COc1ccc(OC)c([C@@H]2[C@H](OC)C(=O)N2C/C(C#N)=C/c2ccccc2)c1 the pIC50 [1] was 4.63 and the pIC50 [2] was less than 4.00.

With COC(=O)/C(=C/c1ccccc1)CN1C(=O)[C@@H](OC)[C@H]1c1cccc(Cl)c1 the pIC50 [3] was 4.60 and the IC50 [2] was “Non-Toxic”.

CO[C@@H]1C(=O)N(C/C(C#N)=C/c2ccccc2)[C@@H]1c1ccc2c(c1)OCO2 gave a pIC50 [3] of 4.97 and a pIC50 [2] of less than 4.00.

In the case of COC(=O)/C(=C/c1ccccc1)CN1C(=O)[C@@H](OC)[C@H]1c1cccc([N+](=O)[O-])c1, the pIC50 [1] was 4.84, the pIC50 [3] was 4.82 and the IC50 [2] was “Non-Toxic”.

With COC(=O)/C(=C/c1ccccc1)CN1C(=O)[C@@H](OC)[C@H]1c1ccc(OC)cc1 the pIC50 [1] was 4.85, the pIC50 [3] was 4.93 and the IC50 [2] was “Non-Toxic”.

In the case of CCOC(=O)/C(=C/c1ccccc1)CN1C(=O)[C@@H](OC)[C@H]1c1ccc(F)cc1, the pIC50 [1] was 4.86, the pIC50 [3] was 4.72 and the IC50 [2] was “Non-Toxic”.

In the case of COC(=O)/C(=C/c1ccccc1)CN1C(=O)[C@@H](OC)[C@H]1c1ccc(Cl)cc1Cl, the pIC50 [1] was 4.72 and the pIC50 [2] was 4.15.

In the case of CO[C@@H]1C(=O)N(C/C(C#N)=C/c2ccccc2)[C@@H]1c1ccc(Br)cc1, the IC50 [2] was “Non-Toxic”.

For CO[C@@H]1C(=O)N(C/C(C#N)=C/c2ccccc2)[C@@H]1c1cccc(C)c1, the pIC50 [1] was 4.95, the pIC50 [3] was 4.95 and the IC50 [2] was “Non-Toxic”.

In the case of CCOC(=O)/C(=C/c1ccccc1)CN1C(=O)[C@@H](OC)[C@H]1c1cccc([N+](=O)[O-])c1, the pIC50 [1] was 4.84, the pIC50 [3] was 4.70 and the IC50 [2] was “Non-Toxic”.

Work on CO[C@@H]1C(=O)N(C/C(C#N)=C/c2ccccc2)[C@@H]1c1ccc(C)cc1 yielded a selectivity ratio [4] of 10, a Ratio [5] of 0.08 and an Activity [6] of 83%. For the same compound, the Ratio [7] was 0.64, the Ratio [8] was 0.35 and the Activity [9] was 1.9%. The Ratio [10] was 0.02, the Ratio [11] was 0.51 and the inhibition [12] was “Dose-dependent effect”. It also gave a Ratio [13] of 0.04, an Activity [14] of 4.15% and a Ratio [15] of 0.16. The Ratio [16] was 0.24, the Ratio [17] was 0.09 and the pIC50 [1] was 5.03. The Activity [18] was 4.1%, the pIC50 [3] was 5.00 and the Activity [19] was 12.8%. The Ratio [20] was 0.17, the Ratio [21] was 0.17 and the Activity [22] was 1.4%. The Ratio [23] was 0.22, the Activity [24] was 9.43% and the Ratio [25] was 0.06. The Ratio [26] was 0.32, the IC50 [2] was “Non-Toxic” and the Activity [27] was 1.3%. For the same compound, the Activity [28] was 2.22%, the Activity [29] was 9% and the inhibition [30] was “Dose-dependent effect”. It also gave a Ratio [31] of 0.15.

COC(=O)/C(=C/c1ccccc1)CN1C(=O)[C@@H](OC)[C@H]1c1ccc(Cl)cc1 showed a pIC50 [1] of 4.81, a pIC50 [3] of 4.82 and a pIC50 [2] of 4.42.
